Holding throughout (assay type): cell-based
Assay [1] deals with CCRF-CEM cancer cells - leukemia. Nature of the assay: Fluorometric Microculture Cytotoxicity Assay (FMCA), CCRF-CEM. The following applies: Homo sapiens, 72 h incubation. An excerpt:
(§1) The Fluorometric Microculture Cytotoxicity Assay, FMCA (Larsson, R., et al.; Anticancer Res, 1989, 9, 1111-1119), is a three day non-clonogenic microplate-based cell viability assay used for measurement of the cytotoxic and/or cytostatic effect of compounds in vitro (Lindhagen, E. et al.; Nat. Protoc., 2008, 3, 1364-1369). FMCA represents a valuable method to measure cytotoxicity in a number of cell types, both cell lines and primary cells from patients (Larsson, R., et al.; Int. J. Cancer, 1992, 50, 177-185; Fridborg, H., et al.; Eur. J. Cancer, 1999. 35, 424-432; Dhar, S., et al.; Br. J. Cancer, 1996, 74, 888-896).
(§2) FMCA is based on the principle that fluorescein diacetate (FDA) is converted to the fluorescent probe fluorescein by esterases in the plasma membranes of living cells. For experiments, 96 or 384-well microplates are prepared with compounds and stored at −70° C. until use. Cells are then seeded into the drug-prepared plates and placed in an incubator for 72 h. On the last day of incubation, the plates are washed and a buffer containing FDA is added and incubated with the cells for 45 minutes. Finally the fluorescence per well is measured in a fluorometer and a Survival Index % (SI) for each compound-treated well is calculated with the equation: Compound-treated cells minus blank divided by control cells minus blank. A high SI-value indicates a large percentage of living cells and vice versa.
In subsequent experiments, compounds were tested, along with a number of approved cancer drugs (dasatinib, pazopanib, sorafenib, and sunitinib) as described above. Initially, the acute lymphoblastic leukemia cell line CCRF-CEM was used throughout. In the assay plates, medium was added to six empty wells (blank wells) and wells were filled with PBS and cell suspension and served as control wells. SI-values were then calculated for each compound-treated well as described above. All experiments were conducted twice and a new batch of plates was prepared for each experiment.
(§3) For dose-response experiments, 384-well plates were prepared as follows:
(§4) Compounds of the invention as well comparative kinase inhibitors sorafenib sunitinib, dasatinib, pazopanib and a reference compound disclosed in WO 2009/071535 (compound #107) were diluted with PBS to a concentration ten-times higher than the desired starting concentration. Then, a Biomek 2000 liquid handling system was employed to serially dilute the compounds in a deep-well 384-well plate. From this plate, assay plates containing 5 μl compound per well were prepared with the Biomek 2000. Certain compounds precipitated when diluted with PBS, and these compounds were therefore prepared in a 96-well plate manually as described above using culture medium RPMI 1640 instead of PBS.
(§5) The compounds were also tested at five concentrations, with five times serial dilution on the following cell types: CCRF-CEM, hTERT-RPE1 (normal retinal epithelial cells), hRPTEpiC (normal renal cells), and peripheral blood mononuclear cells (PBMC). Each experiment was performed three times, except for PBMC and hRPTEpiC, which were performed twice. SI-values were calculated, graphs were plotted using GraphPadPrism 5.0 (GraphPad Software Inc. La Jolla, Calif.) and IC50-values for each cell type and compound were determined from the curves.

The next assay relates to RPMI 8226 (myeloma). The assay can be described thus: FMCA, RPMI 8226. The following applies: Homo sapiens, RPMI 8226 myeloma cells.
Source text: as §1, §2, §3, §4, §5
(§6) The compounds of the invention were also tested on further cancer cell lines related to breast cancer (MDA-MB-231; see e.g. Cailleau, R., et al.; J. Natl. Cancer Inst., 1974, 53, 661-674), teniposide-resistant leukemia (CEM/VM1 see e.g. Danks, M., et al.; Cancer Res., 1987, 47, 1297-1301), leukemia (HL-60; see e.g. Collins, S., et al.; Nature, 1977, 270, 347-349), doxorubicin-resistant lung cancer (H69AR; see e.g. Mirski, S., et al.; Cancer Res., 1987, 47, 2594-2598), myeloma (RPMI 8226; see e.g. Matsuoka, Y., et al.; Proc. Soc. Exp. Biol. Med., 1967, 125, 1246-1250), doxorubicin-resistant myeloma (8226/Dox40; see e.g. Dalton, W., et al.; Blood, 1989, 15, 747-752), lymphoma (U-937, see e.g. Sundström, C., et al.; Int. J. Cancer, 1976, 17, 565-577), vincristin-resistant lymphoma (U-937-vcr; see e.g. Botling, J., et al.; Int. J. Cancer, 1994, 58, 269-274), ovarian cancer (A2780; see e.g. Hamilton, T., et al.; Semin. Oncol., 1984, 11, 285-298), doxorubicin-resistant ovarian cancer (A2780/Adr), cisplatin-resistant ovarian cancer (A2780/Cis; see e.g. Behrens, B., et al. Cancer Res. 1987, 47, 414-418), pancreatic cancer (PANC-1, BxPC-3, and MIA PaCa-2; see e.g. Lieber, M., et al.; Int. J. Cancer, 1975, 15, 741-747; Loor, R., et al.; Clin. Lab. […]

In assay [2] the test system is CEM/VM1 (teniposide-resistant leukemia). Nature of the assay: FMCA, CEM/VM1. To be noted: Homo sapiens, CEM/VM1 teniposide-resistant leukemia cells.
Source text: as §1, §2, §3, §4, §5, §6

The subject of assay [3] is U-937-vcr (vincristin-resistant lymphoma). The assay can be described thus: FMCA, U-937-vcr. The following applies: U-937-vcr vincristin-resistant lymphoma cells.
Source text: as §1, §2, §3, §4, §5, §6

The subject of a further assay is U-937 (lymphoma). The assay can be described thus: FMCA, U-937. To be noted: Homo sapiens, U-937 lymphoma cells.
Source text: as §1, §2, §3, §4, §5, §6

For assay [4], the system named is A2780/Cis (cisplatin-resistant ovarian cancer). The assay can be described thus: FMCA, A2780/Cis. The following applies: A2780cis, A2780/Cis cisplatin-resistant ovarian cancer cells.
Source text: as §1, §2, §3, §4, §5, §6

For assay [5], the system named is H69AR (doxorubicin-resistant lung cancer). Nature of the assay: FMCA, H69AR. To be noted: Homo sapiens, H69AR doxorubicin-resistant lung cancer cells.
Source text: as §1, §2, §3, §4, §5, §6

For assay [6], the system named is A2780/Adr (doxorubicin-resistant ovarian cancer). Nature of the assay: FMCA, A2780/Adr. The following applies: A2780/Adr doxorubicin-resistant ovarian cancer cells.
Source text: as §1, §2, §3, §4, §5, §6

The test system of assay [7] is 8226/Dox40 (doxorubicin-resistant myeloma). Nature of the assay: FMCA, 8226/Dox40. The following applies: 8226/Dox40 doxorubicin-resistant myeloma cells.
Source text: as §1, §2, §3, §4, §5, §6

Another assay deals with A2780 (ovarian cancer). Nature of the assay: FMCA, A2780. To be noted: Homo sapiens, A2780 ovarian cancer cells.
Source text: as §1, §2, §3, §4, §5, §6

The EC50 is the concentration that produces a half-maximal response. A lower EC50 goes with an effect from little substance.

Take `COc1ccc2[nH]cc(CCNc3nc(C)cc(Nc4ccc5[nH]c(C)cc5c4)n3)c2c1` [Example 27, N^2-[2-(5-methoxy-1H-indol-3-yl)ethyl]-6-methyl-N^4-(2-methyl-1H-indol-5-yl)pyrimidine-2,4-diamine]: the EC50 in [1] is 19 nM; with RPMI 8226 (myeloma), 110 nM; in assay [2] it was 44 nM; in assay [3], 62 nM; in the assay on U-937 (lymphoma) it was 41 nM; in assay [4], 62 nM. Also, the EC50 in [5] was determined as 63 nM; in assay [6], 440 nM; in [7] it was 300 nM; in the assay on A2780 (ovarian cancer), 74 nM.

As for `COc1ccc2[nH]cc(CCNc3nccc(Nc4ccc5[nH]c(C)c(C)c5c4)n3)c2c1` [Example 14, N^4-(2,3-dimethyl-1H-indol-5-yl)-N^2-[2-(5-methoxy-1H-indol-3-yl)ethyl]pyrimidine-2,4-diamine], the EC50 in assay [1] came to 21 nM; in the assay with RPMI 8226 (myeloma), 210 nM; in [2] it was 51 nM; in assay [3], 44 nM; in the assay with U-937 (lymphoma), 73 nM; in assay [4], 63 nM. The EC50 in [5] amounted to 200 nM; in assay [6], 440 nM; in assay [7] it was 280 nM; in the assay on A2780 (ovarian cancer) it was 110 nM.

Turning to `c1ccc2c(CCNc3nccc(Nc4ccc5[nH]ccc5c4)n3)c[nH]c2c1` [Example 1, N^2-[2-(1H-indol-3-yl)ethyl]-N^4-(1H-indol-5-yl)pyrimidine-2,4-diamine], the EC50 in [1] turned out to be 4100 nM.

Values taken from patent publication US9006241B2, “Pyrimidine derivatives” (Noviga Research AB, priority 2011, dated 2015).
